Values after ≈ are worked out from the molar mass of the structure shown. Like-named read-outs stand apart in the source and are kept apart here.
Experiments:
[1] = target: SARS‐CoV‐2 RdRp complex (nsp12, nsp7, nsp8) (Severe acute respiratory syndrome coronavirus 2, UniProt P0DTD1); experiment: Fluorescence-based RdRp polymerase assay (SYBR Green I RNA extension); assay type: biochemical
[2] = in vitro; settings: human
Protocol: (§1) Briefly, two‐fold fold serial dilutions of compounds were added in triplicate in a 384‐well plate with 15,000 Calu‐3 cells in DMEM medium with 2 % FBS, 100 U of penicillin/ml and 100 μg of streptomycin/ml (all Merck). After 1 h incubation SARS‐CoV‐2 was added at multiplicity of infection 0.01. Following three days incubation at 37 °C in 5 % CO2 the cell viability was determined by addition of XTT solution (Sigma‐Aldrich) for 4 h and the absorbance was measured using EnVision plate reader (Perkin Elmer). Drug concentrations required to reduce viral cytopathic effect by 50 % (EC50) were calculated using nonlinear regression from plots of percentage cell viability versus log10 drug concentration using GraphPad Prism v.9.0.0 (GraphPad Software). Cytotoxicity was evaluated by incubating the same two‐fold serial dilutions of each compound with Calu‐3 cells as above but without virus. Following three days of incubation at 37 °C in 5 % CO2, the cell viability was determined by the addition of XTT solution as above. The compound concentrations resulting in a 50 % reduction of absorbance (CC50) were calculated from plots of the percentage of absorbance versus log10 drug concentration as above.

[3] = Kinetic solubility test in enzymatic assay medium; assay type: physicochemical; settings: aqueous HEPES buffer with 5 % DMSO, pH 8, aqueous with cosolvent or surfactant or cyclodextrin, kinetic from dmso stock
Protocol: Kinetic solubility tests were performed in the medium used for the enzymatic assay–aqueous solution of HEPES buffer with 5 % DMSO. […] This poor aqueous solubility represents a big hurdle in the development of potential antivirals and the improvement of solubility will be considered in further structural optimization efforts of this class of compounds.

[4] = tested on: SARS‐CoV‐2; settings: Severe acute respiratory syndrome coronavirus 2, Calu-3, 72 h
Protocol: as §1

[5] = Solubility in water (stated in words); assay type: physicochemical
[6] = tested on: SARS‐CoV‐2; settings: cited from earlier work
[7] = tested on: COVID‐19; settings: cited from earlier work
[8] = tested on: Calu‐3 cells; experiment: Cytotoxicity in Calu-3 cells without virus (XTT); settings: Calu‐3 cells, no virus, three days
Protocol: as §1

[9] = Cytotoxicity in Calu-3 cells without virus (XTT); settings: human, CC50, Calu‐3 cells, no virus, three days
Protocol: as §1

[10] = 50 min, read-out: residual activity (RA) of the SARS‐CoV‐2 RdRp complex
[11] = read-out: residual activity (RA) of SARS‐CoV‐2 RdRp

With `FC(F)(F)c1cccc(Nc2nc3cc(Cl)c(Cl)cc3[nH]2)c1` [Compound 56, 5,6‐Dichloro‐N‐(3‐(Trifluoromethyl)phenyl)‐1H‐Benzo[d]imidazol‐2‐Amine] the remaining activity at 10 µM [1, 10] was 60%, the CC50 at 3 days [2] was 43 µM and the solubility kinetic [3] was 7 ± 0.1 µM (≈ 2.42 µg/mL). It also gave an EC50 [4] of over 43 µM.
With `O=C(Nc1cc(C(F)(F)F)cc(C(F)(F)F)c1)Nc1ccc(Br)cc1-c1nnn[nH]1` [Endovion, endovion, reference compound] the solubility in water [5] was “poorly soluble in water”, the remaining activity at 10 µM [1, 10] was 40% and the CC50 at 3 days [2] was over 64 µM. For the same compound, the “activity in cell assays against the virus” value [6] was “active” and the EC50 [4] was over 64 µM.
For `CC(C)C(=O)OC[C@H]1O[C@@H](n2ccc(NO)nc2=O)[C@H](O)[C@@H]1O` [Molnupiravir, molnupiravir], the “post‐hospitalization mortality rate” value ([7]; 30‐day‐long study, patients with moderate COVID‐19, placebo 9.7 %) is listed as 6.8%.
For `NC(=O)c1nc(F)c[nH]c1=O` [favipiravir], the clinical recovery rate ([7]; open‐label randomized trial in China, COVID‐19 patients) is given as “did not significantly improve”.
In the case of `CC(C)OC(=O)c1cc(NC(=O)Nc2cccc([N+](=O)[O-])c2)cc(C(=O)OC(C)C)c1` [Compound 1], the solubility in water [5] is reported as “poorly soluble in water”, the remaining activity at 10 µM [1, 10] is reported as 57% and the CC50 at 3 days [2] is reported as 23 µM. For the same compound, the EC50 [4] was over 23 µM.
For `O=C(Nc1cccc(C(F)(F)F)c1)Nc1nc2cc(Cl)c(Cl)cc2[nH]1` [Compound 59, 1‐(5,6‐Dichloro‐1H‐Benzo[d]imidazol‐2‐yl)‐3‐(3‐(Trifluoromethyl)phenyl)urea], the remaining activity at 10 µM [1, 10] was 50%, the CC50 at 3 days [2] was 23 µM and the solubility kinetic [3] was 2.53 ± 0.03 µM (≈ 0.985 µg/mL). For the same compound, the EC50 [4] was about 10 µM.
With `CCC(CC)COC(=O)[C@H](C)N[P@](=O)(OC[C@H]1O[C@@](C#N)(c2ccc3c(N)ncnn23)[C@H](O)[C@@H]1O)Oc1ccccc1` [Remdesivir, remdesivir, reference compound] the remaining activity at 10 µM [1, 11] was 62%, the remaining activity at 50 µM [1, 11] was 40% and the remaining activity at 100 µM [1, 11] was 25%. For the same compound, the “mortality among hospitalized adults” value ([7]; Adaptive COVID Treatment Trial (ACTT), placebo 15.2 %) was 11.4%, the “improvement compared with placebo” value ([7]; Hubei (China) study) was “no statistically significant improvement” and the CC50 [8] was over 5 µM. The CC50 at 3 days [9] was over 3.2 µM and the EC50 [4] was 0.11 µM.

Reference: publication PMC11617668, “Developing Allosteric Inhibitors of SARS‐CoV‐2 RNA‐Dependent RNA Polymerase” (Chemmedchem, 2024)
